Laboratory results reported in patent publication US20160206688A1, “METHODS FOR TREATING BACTEREMIA AND OSTEOMYELITIS USING ORITAVANCIN” (THE MEDICINES COMPANY, priority 2013, published 2016).
Values after ≈ are worked out from the molar mass of the structure shown.

What was measured:
E. faecium [1] = test: Broth microdilution MIC, US isolates 2011-2012, blood vs non-blood; type: cell-based
Procedure: (§1) 527 E. faecalis, 176 E. faecium, and 790 BHS (335 S. pyogenes and 455 S. agalactiae) clinical, single patient, non-consecutive isolates were collected in 2011-2012 from 46 sites geographically distributed across the United States. The MICs were determined by broth microdilution testing performed in accordance with CLSI M7 and M100 guidelines. From the resulting database, this analysis focused on the activities of ORI, vancomycin (VAN), daptomycin (DAP), and linezolid (LZD) according to specimen source.

S. agalactiae = test: as above; type: cell-based
Procedure: as §1

E. faecalis [2] = test: as above; type: cell-based
Procedure: as §1

S. pyogenes = test: as above; type: cell-based
Procedure: as §1

MDR SA = test: Microdilution MIC against MDR SA by specimen source; type: cell-based, S. aureus
Procedure: 456 clinical, single-patient, non-consecutive, MDR SA isolates from the known specimen sources collected in 2011-2012 were analyzed. MDR was defined as resistant to ≧3 of the following: erythromycin, clindamycin, gentamicin, levofloxacin, and trimethoprim/sulfamethoxazole. 382 were MRSA and 74 were MSSA. MICs were determined by microdilution testing in accordance with CLSI M7 and M100 guidelines. Although other comparator drugs were tested, this analysis focuses on the activities of ORI, VAN, DAP, and LZD.

VRE = test: Susceptibility of the subject's blood culture isolate (treatment history); type: cell-based; conditions: 2012 July
Text: 11, 2013; the plan was for at least 8 weeks of antibiotic therapy.

S. aureus = test: Broth microdilution MIC, European bacteraemia isolates 2010-2012; type: cell-based; conditions: S. aureus Methicillin-resistant (1,708)
Procedure: (§2) A total of 2,904 clinical strains responsible for documented bacteremia among unique hospitalized patients in 38 hospitals in 11 European Union countries. Israel, Russia, Turkey and Ukraine were included in this study (2010-2012). Isolates were submitted to a central monitoring laboratory (JMI Laboratories, North Liberty. Iowa. USA), following previously established protocols. Bacterial species identification was performed by using an automated system (Vitek®2; bioMèrieux, Hazelwood, Mo., USA) or conventional biochemical algorithms, as required.
(§3) Isolates were tested for susceptibility by broth microdilution methods following the Clinical and Laboratory Standards Institute (CLSI; M07-A9, 2012) document. Susceptibility testing was performed in cation-adjusted Mueller-Hinton broth (CA-MHB) using dry-form panels manufactured by Thermo Fisher Scientific, formerly TREK Diagnostics Systems/Sensititre (Cleveland. Ohio, USA). These panels provide results equivalent to the CLSI-approved broth microdilution method supplemented with 0.002% polysorbate-80.
(§4) Quality assurance was performed by concurrent testing of CLSI-recommended (M100-S23, 2013) strains: E. faecalis ATCC 29212 and S. aureus ATCC 29213. Interpretation of comparator MIC results was in accordance with published CLSI (M100-S23) and European Committee on Antimicrobial Susceptibility Testing (EUCAST, 2013) criteria.

[3] = tested on: Coagulase-negative staphylococci; test: as above; type: cell-based, coagulase-negative staphylococci (CoNS); conditions: Coagulase-negative staphylococci (646)
Procedure: as §2, §3, §4

E. faecalis [4] = test: as above; type: cell-based, Enterococcus faecalis
Procedure: as §2, §3, §4

E. faecium [5] = test: as above; type: cell-based, Enterococcus faecium; conditions: for % Resistant, CLSI / % Susceptible, CLSI: CLSI M100-S23 breakpoints; for % Resistant, EUCAST / % Susceptible, EUCAST: EUCAST 2013 breakpoints; for MIC90: read-out: MIC 90%
Procedure: as §2, §3, §4

[6] = E. faecalis (445), CLSI M100-S23 breakpoints
[7] = E. faecalis (445), EUCAST 2013 breakpoints
[8] = E. faecium Vancomycin-resistant (VanA-phenotype) (153)
[9] = E. faecium Vancomycin-susceptible (257)
[10] = Table 2, E. faecium Vancomycin-susceptible (257)

Question: What does the source list for `CC(=O)NC[C@H]1CN(c2ccc(N3CCOCC3)c(F)c2)C(=O)O1` [Linezolid, linezolid]?
Answer: MIC90 (E. faecium [1]; Blood, N 84): 2 µg/mL (≈ 5.93 µM); MIC90 (E. faecium [1]; Non-Blood, N 92): 2 µg/mL (≈ 5.93 µM); MIC90 (S. agalactiae; Blood, N 100): 1 µg/mL (≈ 2.96 µM); MIC90 (S. agalactiae; Non-Blood, N 355): 1 µg/mL (≈ 2.96 µM); MIC90 (E. faecalis [2]; Blood, N 116): 2 µg/mL (≈ 5.93 µM); MIC90 (E. faecalis [2]; Non-Blood, N 411): 2 µg/mL (≈ 5.93 µM); MIC90 (S. pyogenes; Blood, N 53): 1 µg/mL (≈ 2.96 µM); MIC90 (S. pyogenes; Non-Blood, N 282): 1 µg/mL (≈ 2.96 µM); MIC50 (MDR SA; Blood, n = 108): 2 µg/mL (≈ 5.93 µM); MIC90 (MDR SA; Blood, n = 108): 2 µg/mL (≈ 5.93 µM); Mode (MIC) (MDR SA; Blood, n = 108): 2 µg/mL; MIC50 (MDR SA; Respiratory, N = 157): 2 µg/mL (≈ 5.93 µM); MIC90 (MDR SA; Respiratory, N = 157): 2 µg/mL (≈ 5.93 µM); Mode (MIC) (MDR SA; Respiratory, N = 157): 2 µg/mL; MIC50 (MDR SA; Skin/Wound, N = 191): 2 µg/mL (≈ 5.93 µM); MIC90 (MDR SA; Skin/Wound, N = 191): 2 µg/mL (≈ 5.93 µM); Mode (MIC) (MDR SA; Skin/Wound, N = 191): 2 µg/mL; susceptibility (VRE): susceptible; % Resistant, CLSI (S. aureus; CLSI M100-S23 breakpoints): 0.0%; % Susceptible, CLSI (S. aureus; CLSI M100-S23 breakpoints): 100.0%; % Resistant, EUCAST (S. aureus; EUCAST 2013 breakpoints): 0.0%; % Susceptible, EUCAST (S. aureus; EUCAST 2013 breakpoints): 100.0%; MIC50 (S. aureus; Staphylococcus aureus, Table 2, read-out: MIC 50%): 1 µg/mL (≈ 2.96 µM); MIC90 (S. aureus; Staphylococcus aureus, Table 2, read-out: MIC 90%): 1 µg/mL (≈ 2.96 µM); MIC Range (S. aureus; Table 2): 0.25 to 2 µg/mL; % Resistant, CLSI ([3]; CLSI M100-S23 breakpoints): 0.8%; MIC50 ([3]; Table 2, read-out: MIC 50%): 0.5 µg/mL (≈ 1.48 µM); MIC90 ([3]; Table 2, read-out: MIC 90%): 1 µg/mL (≈ 2.96 µM); % Resistant, CLSI (E. faecalis [4]; [6]): 0.0%; % Susceptible, CLSI (E. faecalis [4]; [6]): 100.0%; % Resistant, EUCAST (E. faecalis [4]; [7]): 0.0%; % Susceptible, EUCAST (E. faecalis [4]; [7]): 100.0%; % susceptible (E. faecalis [4]; E. faecalis strains, criteria not stated): 100%; MIC50 (E. faecalis [4]; Enterococcus faecalis, Table 2, E. faecalis (445), read-out: MIC 50%): 1 µg/mL (≈ 2.96 µM); MIC90 (E. faecalis [4]; Enterococcus faecalis, Table 2, E. faecalis (445), read-out: MIC 90%): 2 µg/mL (≈ 5.93 µM); MIC Range (E. faecalis [4]; Table 2, E. faecalis (445), includes four VanA-phenotype strains): 0.5 to 2 µg/mL; % Resistant, CLSI (E. faecium [5]; [8]): 3.8%; % Susceptible, CLSI (E. faecium [5]; [8]): 96.2%; % Resistant, EUCAST (E. faecium [5]; [8]): 3.8%; % Susceptible, EUCAST (E. faecium [5]; [8]): 96.2%; % Resistant, CLSI (E. faecium [5]; [9]): 0.0%; % Susceptible, CLSI (E. faecium [5]; [9]): 100.0%; % Resistant, EUCAST (E. faecium [5]; [9]): 0.0%; % Susceptible, EUCAST (E. faecium [5]; [9]): 100.0%; MIC50 (E. faecium [5]; Enterococcus faecium, Table 2, E. faecium Vancomycin-resistant (VanA-phenotype) (153), read-out: MIC 50%): 1 µg/mL (≈ 2.96 µM); MIC90 (E. faecium [5]; Enterococcus faecium, Table 2, E. faecium Vancomycin-resistant (VanA-phenotype) (153)): 2 µg/mL (≈ 5.93 µM); MIC90 (E. faecium [5]; Enterococcus faecium, Table 2, E. faecium Vancomycin-susceptible (257)): 1 µg/mL (≈ 2.96 µM); MIC Range (E. faecium [5]; Table 2, E. faecium Vancomycin-resistant (VanA-phenotype) (153)): 0.5 to 8 µg/mL; MIC 50% (E. faecium [5]; [10]): 1 µg/mL (≈ 2.96 µM); MIC Range (E. faecium [5]; [10]): 0.25 to 2 µg/mL; % susceptible (E. faecium [5]; VanA-phenotype E. faecium, criteria not stated): 96.2%
